Laboratory results taken from ChEMBL document CHEMBL2203120, “Contribution to investigation of antimicrobial activity of styrylquinolines” (Bioorg Med Chem, 2012).
≈ marks a conversion by molar mass, not a printed value. Where a SMILES comes first, the peptide text is derived from it. Bridges are numbered along the chain shown (N, C = ends). [ ]: non-standard residue; d: D form. The star is where a group is joined. Ileψ(thiazoline)Cys = CC[C@H](C)[C@H](N)C1=N[C@H](C(=O)*)CS1; dOrn = NCCC[C@@H](N)C(=O)O

Legend:
[1] = tested on: Trichosporon beigelii; experiment: Antimicrobial activity against Trichosporon beigelii 1188 after 48 hrs by broth microdilution test; type: functional; conditions: Trichosporon beigelii, 1188, 48 h
[2] = tested on: Nakaseomyces glabratus; experiment: Antimicrobial activity against Candida glabrata 20/I after 48 hrs by broth microdilution test; type: functional
[3] = tested on: Pichia kudriavzevii; experiment: Antimicrobial activity against Candida krusei ATCC 6258 after 48 hrs by broth microdilution test; type: functional; conditions: ATCC 6258, 48 h
[4] = tested on: Candida tropicalis; experiment: Antimicrobial activity against Candida tropicalis 156 after 48 hrs by broth microdilution test; type: functional; conditions: Candida tropicalis, 156, 48 h
[5] = Lipophilicity, log P of compound by RP-HPLC analysis; type: physicochemical
[6] = tested on: Staphylococcus epidermidis; experiment: Antimicrobial activity against Staphylococcus epidermidis H 6966/08 after 48 hrs by broth microdilution method; type: functional; conditions: H 6966/08, 48 h
[7] = tested on: Staphylococcus epidermidis; experiment: Antimicrobial activity against Staphylococcus epidermidis H 6966/08 after 24 hrs by broth microdilution method; type: functional; conditions: H 6966/08, 24 h
[8] = tested on: Staphylococcus aureus; experiment: Antimicrobial activity against methicillin-resistant Staphylococcus aureus H 5996/08 after 48 hrs by broth microdilution method; type: functional; conditions: H 5996/08, 48 h
[9] = tested on: Staphylococcus aureus; experiment: Antimicrobial activity against methicillin-resistant Staphylococcus aureus H 5996/08 after 24 hrs by broth microdilution method; type: functional; conditions: H 5996/08, 24 h
[10] = tested on: Staphylococcus aureus; experiment: Antimicrobial activity against Staphylococcus aureus CCM 4516/08 after 48 hrs by broth microdilution method; type: functional; conditions: CCM 4516/08, 48 h
[11] = tested on: Staphylococcus aureus; experiment: Antimicrobial activity against Staphylococcus aureus CCM 4516/08 after 24 hrs by broth microdilution method; type: functional; conditions: CCM 4516/08, 24 h
[12] = tested on: Candida albicans; experiment: Antimicrobial activity against Candida albicans ATCC 44859 after 48 hrs by broth microdilution test; type: functional; conditions: ATCC 44859, 48 h
[13] = tested on: Trichosporon beigelii; experiment: Antimicrobial activity against Trichosporon beigelii 1188 after 24 hrs by broth microdilution test; type: functional; conditions: Trichosporon beigelii, 1188, 24 h
[14] = tested on: Nakaseomyces glabratus; experiment: Antimicrobial activity against Candida glabrata 20/I after 24 hrs by broth microdilution test; type: functional
[15] = tested on: Pichia kudriavzevii; experiment: Antimicrobial activity against Candida krusei ATCC 6258 after 24 hrs by broth microdilution test; type: functional; conditions: ATCC 6258, 24 h
[16] = tested on: Candida tropicalis; experiment: Antimicrobial activity against Candida tropicalis 156 after 24 hrs by broth microdilution test; type: functional; conditions: Candida tropicalis, 156, 24 h
[17] = tested on: Candida albicans; experiment: Antimicrobial activity against Candida albicans ATCC 44859 after 24 hrs by broth microdilution test; type: functional; conditions: ATCC 44859, 24 h
[18] = tested on: Trichophyton mentagrophytes; experiment: Antimicrobial activity against Trichophyton mentagrophytes 445 after 120 hrs by broth microdilution test; type: functional; conditions: Trichophyton mentagrophytes, 445, 120 h
[19] = tested on: Lichtheimia corymbifera; experiment: Antimicrobial activity against Absidia corymbifera 272 after 48 hrs by broth microdilution test; type: functional; conditions: Lichtheimia corymbifera, 272, 48 h
[20] = tested on: Aspergillus fumigatus; experiment: Antimicrobial activity against Aspergillus fumigatus 231 after 48 hrs by broth microdilution test; type: functional; conditions: Aspergillus fumigatus, 231, 48 h
[21] = tested on: Trichophyton mentagrophytes; experiment: Antimicrobial activity against Trichophyton mentagrophytes 445 after 72 hrs by broth microdilution test; type: functional; conditions: Trichophyton mentagrophytes, 445, 72 h
[22] = tested on: Lichtheimia corymbifera; experiment: Antimicrobial activity against Absidia corymbifera 272 after 24 hrs by broth microdilution test; type: functional; conditions: Lichtheimia corymbifera, 272, 24 h
[23] = tested on: Aspergillus fumigatus; experiment: Antimicrobial activity against Aspergillus fumigatus 231 after 24 hrs by broth microdilution test; type: functional; conditions: Aspergillus fumigatus, 231, 24 h

| Compound | MIC80 [1] | MIC80 [2] | MIC80 [3] | MIC80 [4] | logP [5] | MIC90 [6] | MIC90 [7] | MIC90 [8] | MIC90 [9] | MIC90 [10] | MIC90 [11] | MIC80 [12] | MIC80 [13] | MIC80 [14] | MIC80 [15] | MIC80 [16] | MIC80 [17] | MIC50 [23] | further results |
| --- | --- | --- | --- | --- | --- | --- | --- | --- | --- | --- | --- | --- | --- | --- | --- | --- | --- | --- | --- |
| Oc1ccc(/C=C/c2ccc3c(Cl)cc(Cl)c(O)c3n2)cc1 | > 125 µM | > 125 µM | > 125 µM | > 125 µM | 5.07 | 62.5 µM (≈ 20.8 µg/mL) | 62.5 µM (≈ 20.8 µg/mL) | 31.2 µM (≈ 10.4 µg/mL) | 31.2 µM (≈ 10.4 µg/mL) | 15.6 µM (≈ 5.19 µg/mL) | 7.81 µM (≈ 2.59 µg/mL) | > 125 µM | – | – | – | – | – | – | – |
| Oc1ccc(/C=C/c2ccc3c(Cl)cc(Cl)c(O)c3n2)c(O)c1 | – | – | – | – | 4.68 | 31.2 µM (≈ 10.9 µg/mL) | 15.6 µM (≈ 5.44 µg/mL) | 62.5 µM (≈ 21.8 µg/mL) | 31.2 µM (≈ 10.9 µg/mL) | 62.5 µM (≈ 21.8 µg/mL) | 15.6 µM (≈ 5.44 µg/mL) | – | – | – | – | – | – | – | – |
| Oc1cc(O)cc(/C=C/c2ccc3c(Cl)cc(Cl)c(O)c3n2)c1 | > 125 µM | > 125 µM | > 125 µM | > 125 µM | 4.68 | 125 µM (≈ 43.5 µg/mL) | 31.2 µM (≈ 10.9 µg/mL) | 125 µM (≈ 43.5 µg/mL) | 125 µM (≈ 43.5 µg/mL) | 125 µM (≈ 43.5 µg/mL) | 125 µM (≈ 43.5 µg/mL) | > 125 µM | > 125 µM | > 125 µM | > 125 µM | > 125 µM | > 125 µM | – | – |
| CCOc1ccccc1/C=C/c1ccc2c(Cl)cc(Cl)c(O)c2n1 | 1.95 µM (≈ 0.702 µg/mL) | 1.95 µM (≈ 0.702 µg/mL) | 3.9 µM (≈ 1.4 µg/mL) | 0.98 µM (≈ 0.353 µg/mL) | 5.67 | 7.81 µM (≈ 2.81 µg/mL) | 3.9 µM (≈ 1.4 µg/mL) | 7.81 µM (≈ 2.81 µg/mL) | 3.9 µM (≈ 1.4 µg/mL) | 7.81 µM (≈ 2.81 µg/mL) | 3.9 µM (≈ 1.4 µg/mL) | 0.98 µM (≈ 0.353 µg/mL) | 0.49 µM (≈ 0.177 µg/mL) | 0.98 µM (≈ 0.353 µg/mL) | 0.98 µM (≈ 0.353 µg/mL) | 0.98 µM (≈ 0.353 µg/mL) | 0.49 µM (≈ 0.177 µg/mL) | 3.9 µM (≈ 1.4 µg/mL) | MIC50 [18]: 1.52 µM (≈ 0.548 µg/mL); MIC50 [19]: 15.6 µM (≈ 5.63 µg/mL); MIC50 [20]: 3.9 µM (≈ 1.4 µg/mL); MIC50 [21]: 1.39 µM (≈ 0.501 µg/mL); MIC50 [22]: 15.6 µM (≈ 5.63 µg/mL) |
| CCOc1ccc(/C=C/c2ccc3c(Cl)cc(Cl)c(O)c3n2)cc1 | 125 µM (≈ 45 µg/mL) | > 125 µM | 125 µM (≈ 45 µg/mL) | 125 µM (≈ 45 µg/mL) | 5.67 | 125 µM (≈ 45 µg/mL) | 125 µM (≈ 45 µg/mL) | 125 µM (≈ 45 µg/mL) | 125 µM (≈ 45 µg/mL) | 125 µM (≈ 45 µg/mL) | 125 µM (≈ 45 µg/mL) | 125 µM (≈ 45 µg/mL) | 125 µM (≈ 45 µg/mL) | > 125 µM | 125 µM (≈ 45 µg/mL) | 125 µM (≈ 45 µg/mL) | 125 µM (≈ 45 µg/mL) | > 125 µM | MIC50 [18]: 125 µM (≈ 45 µg/mL); MIC50 [19]: > 125 µM; MIC50 [20]: > 125 µM; MIC50 [21]: 125 µM (≈ 45 µg/mL); MIC50 [22]: > 125 µM |
| Oc1c(Cl)cc(Cl)c2ccc(/C=C/c3ccc(/C=C/c4ccc5c(Cl)cc(Cl)c(O)c5n4)cc3)nc12 | – | – | – | – | 8.88 | 125 µM (≈ 69.3 µg/mL) | 62.5 µM (≈ 34.6 µg/mL) | 125 µM (≈ 69.3 µg/mL) | 62.5 µM (≈ 34.6 µg/mL) | 125 µM (≈ 69.3 µg/mL) | 62.5 µM (≈ 34.6 µg/mL) | 3.9 µM (≈ 2.16 µg/mL) | 3.9 µM (≈ 2.16 µg/mL) | 0.49 µM (≈ 0.272 µg/mL) | 0.98 µM (≈ 0.543 µg/mL) | – | 0.98 µM (≈ 0.543 µg/mL) | 3.9 µM (≈ 2.16 µg/mL) | MIC50 [21]: 3.9 µM (≈ 2.16 µg/mL) |
| Oc1ccc(/C=C/c2ccc3c(Cl)cc(Cl)c(O)c3n2)cc1O | – | – | – | – | 4.68 | 31.2 µM (≈ 10.9 µg/mL) | 15.6 µM (≈ 5.44 µg/mL) | 62.5 µM (≈ 21.8 µg/mL) | 31.2 µM (≈ 10.9 µg/mL) | 62.5 µM (≈ 21.8 µg/mL) | 62.5 µM (≈ 21.8 µg/mL) | – | – | – | – | – | – | – | – |
| CC[C@H](C)[C@H](N)C1=N[C@H](C(=O)N[C@@H](CC(C)C)C(=O)N[C@H](CCC(=O)O)C(=O)N[C@H](C(=O)N[C@H]2CCCCNC(=O)[C@H](CC(N)=O)NC(=O)[C@@H](CC(=O)O)NC(=O)[C@H](Cc3cnc[nH]3)NC(=O)[C@@H](Cc3ccccc3)NC(=O)[C@H]([C@@H](C)CC)NC(=O)[C@@H](CCCN)NC2=O)[C@@H](C)CC)CS1 [BACITRACIN] ({Ileψ(thiazoline)Cys}-L[dE]IK[dOrn]I[dF]H[dD]N; lactam 4-C) | – | – | – | – | – | 31.6 µM (≈ 45 µg/mL) | 15.6 µM (≈ 22.2 µg/mL) | 31.6 µM (≈ 45 µg/mL) | 15.6 µM (≈ 22.2 µg/mL) | 31.2 µM (≈ 44.5 µg/mL) | 15.6 µM (≈ 22.2 µg/mL) | – | – | – | – | – | – | – | – |
| O=C(O)c1cn(C2CC2)c2cc(N3CCNCC3)c(F)cc2c1=O [CIPROFLOXACIN] | – | – | – | – | – | 250 µM (≈ 82.8 µg/mL) | 250 µM (≈ 82.8 µg/mL) | 500 µM (≈ 166 µg/mL) | 500 µM (≈ 166 µg/mL) | 0.98 µM (≈ 0.325 µg/mL) | 0.98 µM (≈ 0.325 µg/mL) | – | – | – | – | – | – | – | – |
| OC(Cn1cncn1)(Cn1cncn1)c1ccc(F)cc1F [FLUCONAZOLE] | 0.48 µM (≈ 0.147 µg/mL) | – | – | > 125 µM | – | – | – | – | – | – | – | 0.12 µM (≈ 0.0368 µg/mL) | 0.24 µM (≈ 0.0735 µg/mL) | 0.98 µM (≈ 0.3 µg/mL) | – | 0.12 µM (≈ 0.0368 µg/mL) | 0.06 µM (≈ 0.0184 µg/mL) | > 125 µM | MIC50 [19]: > 125 µM; MIC50 [20]: > 125 µM; MIC50 [22]: > 125 µM |
| CC1(C)S[C@@H]2[C@H](NC(=O)COc3ccccc3)C(=O)N2[C@H]1C(=O)O [PENICILLIN V] | – | – | – | – | – | 125 µM (≈ 43.8 µg/mL) | 31.2 µM (≈ 10.9 µg/mL) | 125 µM (≈ 43.8 µg/mL) | 125 µM (≈ 43.8 µg/mL) | 0.24 µM (≈ 0.0841 µg/mL) | 0.24 µM (≈ 0.0841 µg/mL) | – | – | – | – | – | – | – | – |
